Columns and labels:
[1] = target: T1, mouse DGAT1 (Mus musculus, UniProt Q9Z2A7); test: DGAT1 inhibitory effect test (microsome fraction, [14C]-oleoyl-CoA, triglyceride radioactivity by TLC); assay type: biochemical; conditions: 0.5 h; concentration of the test compound 0.1 μg/ml; mouse DGAT1 microsomes, 23° C., 30 minutes; read-out: Inhibitory ratio
T1 construct: made in house; host or cells: insect cells (High Five, Sf9, Sf21, etc.), baculovirus expression system (Invitrogen)
T1 sequence (Q9Z2A7 1-498): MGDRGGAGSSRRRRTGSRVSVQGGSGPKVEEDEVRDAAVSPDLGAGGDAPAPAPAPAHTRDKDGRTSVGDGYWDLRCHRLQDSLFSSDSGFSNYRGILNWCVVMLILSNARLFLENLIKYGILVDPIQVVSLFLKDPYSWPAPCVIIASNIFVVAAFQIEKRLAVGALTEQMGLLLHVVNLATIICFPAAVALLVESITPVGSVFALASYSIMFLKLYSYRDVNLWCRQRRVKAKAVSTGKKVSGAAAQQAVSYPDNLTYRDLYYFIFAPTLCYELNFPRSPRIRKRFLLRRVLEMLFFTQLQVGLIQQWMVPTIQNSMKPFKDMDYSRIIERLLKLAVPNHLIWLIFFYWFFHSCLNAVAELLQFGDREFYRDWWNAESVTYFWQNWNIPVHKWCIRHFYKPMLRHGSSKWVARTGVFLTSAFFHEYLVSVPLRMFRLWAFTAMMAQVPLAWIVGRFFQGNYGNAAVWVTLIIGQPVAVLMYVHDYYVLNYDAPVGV
Summary of the method: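 Inhibition was scored from radiolabelled triglyceride separated by TLC, relative to vehicle and net of a 0-min background. The reaction ran for 30 min at room temperature (23 °C) in Tris-HCl pH 8.0 with MgCl2, BSA and Triton X-100. Substrates were 30 μM [14C]-oleoyl-CoA and 0.5 mM dioleoylglycerol, with mouse DGAT1 microsomes from baculovirus-infected insect cells as enzyme.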

| inhibition at 0.1 µg/mL [1] | melting point | Structure (SMILES) |
| --- | --- | --- |
| ≥ 50% | 174 to 176 °C | COc1ccc(C)cc1NC(=O)Nc1ccc(N2CCN(C(=O)Nc3ccc(OCCO)cc3C)CC2)cc1 [Example 208, 4-{4-[3-(2-methoxy-5-methyl-phenyl)-ureido]-phenyl}-piperazine-1-carboxylic acid [4-(2-hydroxy-ethoxy)-2-methyl-phenyl]-amide] |
| ≥ 50% | 175 to 177 °C | COc1ccc(C)cc1NC(=O)Nc1ccc(N2CCN(C(=O)Nc3ccc(OCCO)cc3C(F)(F)F)CC2)cc1 [Example 209, 4-{4-[3-(2-methoxy-5-methyl-phenyl)-ureido]-phenyl}-piperazine-1-carboxylic acid [4-(2-hydroxy-ethoxy)-2-trifluoromethyl-phenyl]-amide] |
| ≥ 50% | 214 to 215 °C | COc1ccc(C)cc1NC(=O)Nc1ccc(N2CCN(C(=O)Nc3ccc(OCCO)cc3F)CC2)cc1 [Example 210, 4-{4-[3-(2-methoxy-5-methyl-phenyl)-ureido]-phenyl}-piperazine-1-carboxylic acid [2-fluoro-4-(2-hydroxy-ethoxy)-phenyl]-amide] |
| ≥ 50% | 219 to 220 °C | O=C(Nc1ccc(N2CCN(C(=O)Nc3ccc(OCCO)cc3C(F)(F)F)CC2)cc1)Nc1ccccc1F [Example 211, 4-{4-[3-(2-fluoro-phenyl)-ureido]-phenyl}-piperazine-1-carboxylic acid [4-(2-hydroxy-ethoxy)-2-trifluoromethyl-phenyl]-amide] |
| ≥ 50% | 140 to 141 °C | COc1ccc(F)cc1NC(=O)Nc1ccc(N2CCN(C(=O)Nc3ccc(OCCO)cc3C(F)(F)F)CC2)cc1 [Example 212, 4-{4-[3-(5-fluoro-2-methoxy-phenyl)-ureido]-phenyl}-piperazine-1-carboxylic acid [4-(2-hydroxy-ethoxy)-2-trifluoromethyl-phenyl]-amide] |
| ≥ 50% | 118 to 120 °C | Cc1cnc(NC(=O)Nc2ccc(N3CCN(C(=O)Nc4ccc(OCCO)cc4C(F)(F)F)CC3)cc2)s1 [Example 213, 4-{4-[3-(5-methyl-thiazol-2-yl)-ureido]-phenyl}-piperazine-1-carboxylic acid [4-(2-hydroxy-ethoxy)-2-trifluoromethyl-phenyl]-amide] |
| ≥ 50% | 214 to 215 °C | COc1cccc(NC(=O)Nc2ccc(N3CCN(C(=O)Nc4ccc(OCCO)cc4C(F)(F)F)CC3)cc2)c1 [Example 214, 4-{4-[3-(3-methoxy-phenyl)-ureido]-phenyl}-piperazine-1-carboxylic acid [4-(2-hydroxy-ethoxy)-2-trifluoromethyl-phenyl]-amide] |
| ≥ 50% | 108 to 110 °C | CCOc1cccc(NC(=O)Nc2ccc(N3CCN(C(=O)Nc4ccc(OCCO)cc4C(F)(F)F)CC3)cc2)c1 [Example 215, 4-{4-[3-(3-ethoxy-phenyl)-ureido]-phenyl}-piperazine-1-carboxylic acid [4-(2-hydroxy-ethoxy)-2-trifluoromethyl-phenyl]-amide] |
| ≥ 50% | 209 to 210 °C | COc1cc(NC(=O)Nc2ccc(N3CCN(C(=O)Nc4ccc(OCCO)cc4C(F)(F)F)CC3)cc2)cc(OC)c1 [Example 216, 4-{4-[3-(3,5-dimethoxy-phenyl)-ureido]-phenyl}-piperazine-1-carboxylic acid [4-(2-hydroxy-ethoxy)-2-trifluoromethyl-phenyl]-amide] |
| ≥ 50% | 118 to 120 °C | COc1ccccc1NC(=O)Nc1ccc(N2CCN(C(=O)Nc3ccc(OCCO)cc3C(F)(F)F)CC2)cc1 [Example 217, 4-{4-[3-(2-methoxy-phenyl)-ureido]-phenyl}-piperazine-1-carboxylic acid [4-(2-hydroxy-ethoxy)-2-trifluoromethyl-phenyl]-amide] |
| ≥ 50% | 118 to 120 °C | COc1ccc(C)cc1NC(=O)Nc1ccc(N2CCCN(C(=O)Nc3ccc(OCCO)cc3C(F)(F)F)CC2)cc1 [Example 218, 4-{4-[3-(2-methoxy-5-methyl-phenyl)-ureido]-phenyl}-perhydro-1,4-diazepine-1-carboxylic acid [4-(2-hydroxy-ethoxy)-2-trifluoromethyl-phenyl]-amide] |
| ≥ 50% | 198 to 200 °C | COc1ccc(C)cc1NC(=O)Nc1ccc(N2CCN(C(=O)Nc3ccc(OCCO)cc3C(F)(F)F)CC2)nc1 [Example 220, 4-{5-[3-(2-methoxy-5-methyl-phenyl)-ureido]-pyridin-2-yl}-piperazine-1-carboxylic acid [4-(2-hydroxy-ethoxy)-2-trifluoromethyl-phenyl]-amide] |
| ≥ 50% | 199 to 200 °C | O=C(Nc1ccc(N2CCN(C(=O)Nc3ccc(OCCO)cc3C(F)(F)F)CC2)c(Cl)c1)Nc1ccccc1F [Example 221, 4-{2-chloro-4-[3-(2-fluoro-phenyl)-ureido]-phenyl}-piperazine-1-carboxylic acid [4-(2-hydroxy-ethoxy)-2-trifluoromethyl-phenyl]-amide] |
| ≥ 50% | 193 to 194 °C | O=C(Nc1ccc(N2CCN(C(=O)Nc3ccc(OCCO)cc3C(F)(F)F)CC2)nc1)Nc1ccccc1F [Example 222, 4-{5-[3-(2-fluoro-phenyl)-ureido]-pyridin-2-yl}-piperazine-1-carboxylic acid [4-(2-hydroxy-ethoxy)-2-trifluoromethyl-phenyl]-amide] |

Continued, compound first:

| Structure (SMILES) | inhibition at 0.1 µg/mL [1] | melting point |
| --- | --- | --- |
| COc1ccc(C)cc1NC(=O)Nc1ccc(N2CCN(C(=O)Nc3ccc(NC(C)=O)cc3C(F)(F)F)CC2)nc1 [Example 188, 4-{5-[3-(2-methoxy-5-methyl-phenyl)-ureido]-pyridin-2-yl}-piperazine-1-carboxylic acid (4-acetylamino-2-trifluoromethyl-phenyl)-amide] | ≥ 50% | 175 to 177 °C |
| COc1ccc(C)cc1NC(=O)Nc1ccc(N2CCN(C(=O)Cc3c(F)cccc3F)CC2)cc1 [Example 192, 1-(4-{4-[2-(2,6-difluoro-phenyl)-acetyl]-piperazin-1-yl}phenyl)-3-(2-methoxy-5-methyl-phenyl)-urea] | ≥ 50% | 213 to 215 °C |
| COc1ccc(C)cc1NC(=O)Nc1ccc(N2CCN(C(=O)Oc3c(C)cccc3Cl)CC2)cc1 [Example 197, 4-{4-[3-(2-methoxy-5-methyl-phenyl)-ureido]-phenyl}-piperazine-1-carboxylic acid 2-chloro-6-methyl-phenyl ester] | ≥ 50% | 146 to 148 °C |
| COc1ccc(C)cc1NC(=O)Nc1ccc(N2CCN(C(=O)Nc3c(C)cccc3Cl)C(C)C2)cc1 (stereo not drawn) [Example 198, 4-{4-[3-(2-methoxy-5-methyl-phenyl)-ureido]-phenyl}-2-methyl-piperazine-1-carboxylic acid (2-chloro-6-methyl-phenyl)-amide] | ≥ 50% | 161 to 163 °C |
| COc1ccc(C)cc1NC(=O)Nc1ccc(N2CCN(C(=O)Nc3c(C)cccc3C)C(C)C2)cc1 (stereo not drawn) [Example 199, 4-{4-[3-(2-methoxy-5-methyl-phenyl)-ureido]-phenyl}-2-methyl-piperazine-1-carboxylic acid (2,6-dimethyl-phenyl)-amide] | ≥ 50% | 204 to 206 °C |
| COc1ccc(C)cc1NC(=O)Nc1ccc(N2CCCN(C(=O)Nc3c(C)cccc3Cl)CC2)cc1 [Example 200, 4-{4-[3-(2-methoxy-5-methyl-phenyl)-ureido]-phenyl}-perhydro-1,4-diazepine-1-carboxylic acid (2-chloro-6-methyl-phenyl)-amide] | ≥ 50% | > 240 °C (dec.) |
| COc1ccc(C)cc1NC(=O)Nc1ccc(N2CCCN(C(=O)Nc3c(C)cccc3C)CC2)cc1 [Example 201, 4-{4-[3-(2-methoxy-5-methyl-phenyl)-ureido]-phenyl}-perhydro-1,4-diazepine-1-carboxylic acid (2,6-dimethyl-phenyl)-amide] | ≥ 50% | > 240 °C (dec.) |
| CCCCCCNC(=O)Nc1ccc(N2CCN(C(=O)Nc3c(C)cccc3Cl)CC2)cc1 [Example 206, 4-[4-(3-hexyl-ureido)-phenyl]-piperazine-1-carboxylic acid (2-chloro-6-methyl-phenyl)-amide] | ≥ 50% | 206 to 210 °C |
| Cc1cccc(Cl)c1NC(=O)N1CCN(c2ccc(NC(=O)NC3CCCCC3)cc2)CC1 [Example 207, 4-[4-(3-cyclohexyl-ureido)-phenyl]-piperazine-1-carboxylic acid (2-chloro-6-methyl-phenyl)-amide] | ≥ 50% | > 260 °C (dec.) |
| COc1ccc(C)cc1NC(=O)Nc1ccc(N2CCN(C(=O)Nc3ccc(OCCO)cc3C)CC2)nc1 [Example 219, 4-{5-[3-(2-methoxy-5-methyl-phenyl)-ureido]-pyridin-2-yl}-piperazine-1-carboxylic acid [4-(2-hydroxy-ethoxy)-2-methyl-phenyl]-amide] | ≥ 50% | 189 to 190 °C |

— patent US20070249620A1, “Urea Derivative” (priority 2004, published 2007)
